Reference: the NIST ThermoML archive (doi:10.1016/j.jct.2016.07.032)
± gives the expanded uncertainty stated by the source.

Legend:
[1] = xn = mol fraction of the nth substance listed; conditions: 101.3 kPa, Liquid; for speed of sound: Frequency=3 MHz, Sing-around technique in a fixed-path interferometer; for mass density: Vibrating tube method
[2] = refractive index (Na D-line) (dimensionless); xn = mol fraction of the nth substance listed; conditions: 101.3 kPa, Liquid, Standard Abbe refractometry

CCOc1ccccc1 [ethoxybenzene] + C1CCOC1
Conditions | mass density, 298 K [kg/m3] | mass density, 303 K [kg/m3] | mass density, 308 K [kg/m3] | refractive index, 298 K | refractive index, 303 K | refractive index, 308 K | speed of sound, 298 K [m/s] | speed of sound, 303 K [m/s] | speed of sound, 308 K [m/s]
[1], x1 = 0.031 | 886 ± 2 | 883 ± 2 | 878 ± 2 | – | – | – | 1279 ± 2 | 1255 ± 2 | 1230 ± 2
[1], x1 = 0.072 | 892 ± 2 | 888 ± 2 | 883 ± 2 | – | – | – | 1281 ± 2 | 1256 ± 2 | 1231 ± 2
[1], x1 = 0.117 | 897 ± 2 | 893 ± 2 | 888 ± 2 | – | – | – | 1283 ± 2 | 1258 ± 2 | 1233 ± 2
[1], x1 = 0.197 | 905 ± 2 | 901 ± 2 | 897 ± 2 | – | – | – | 1287 ± 2 | 1262 ± 2 | 1237 ± 2
[1], x1 = 0.246 | 910 ± 2 | 906 ± 2 | 902 ± 2 | – | – | – | 1289 ± 2 | 1265 ± 2 | 1241 ± 2
[1], x1 = 0.326 | 918 ± 2 | 913 ± 2 | 909 ± 2 | – | – | – | 1295 ± 2 | 1271 ± 2 | 1247 ± 2
[1], x1 = 0.492 | 931 ± 2 | 927 ± 2 | 922 ± 2 | – | – | – | 1310 ± 2 | 1287 ± 2 | 1264 ± 2
[1], x1 = 0.695 | 944 ± 2 | 940 ± 2 | 935 ± 2 | – | – | – | 1332 ± 2 | 1309 ± 2 | 1287 ± 2
[1], x1 = 0.899 | 955 ± 2 | 951 ± 2 | 946 ± 2 | – | – | – | 1356 ± 2 | 1334 ± 2 | 1314 ± 2
[1], x1 = 1 | 960 ± 2 | 955 ± 2 | 951 ± 2 | – | – | – | 1369 ± 2 | 1349 ± 2 | 1329 ± 2
[2], x1 = 0.031 | – | – | – | 1.41 ± 0.002 | 1.408 ± 0.002 | 1.405 ± 0.002 | – | – | –
[2], x1 = 0.072 | – | – | – | 1.417 ± 0.002 | 1.414 ± 0.002 | 1.412 ± 0.002 | – | – | –
[2], x1 = 0.117 | – | – | – | 1.424 ± 0.002 | 1.422 ± 0.002 | 1.419 ± 0.002 | – | – | –
[2], x1 = 0.197 | – | – | – | 1.436 ± 0.002 | 1.433 ± 0.002 | 1.43 ± 0.002 | – | – | –
[2], x1 = 0.246 | – | – | – | 1.443 ± 0.002 | 1.44 ± 0.002 | 1.437 ± 0.002 | – | – | –
[2], x1 = 0.326 | – | – | – | 1.453 ± 0.002 | 1.45 ± 0.002 | 1.447 ± 0.002 | – | – | –
[2], x1 = 0.492 | – | – | – | 1.472 ± 0.002 | 1.469 ± 0.002 | 1.466 ± 0.002 | – | – | –
[2], x1 = 0.695 | – | – | – | 1.49 ± 0.002 | 1.487 ± 0.002 | 1.483 ± 0.002 | – | – | –
[2], x1 = 0.899 | – | – | – | 1.502 ± 0.002 | 1.499 ± 0.002 | 1.494 ± 0.002 | – | – | –
[2], x1 = 1 | – | – | – | 1.505 ± 0.002 | 1.503 ± 0.002 | 1.499 ± 0.002 | – | – | –

CCOc1ccccc1 [ethoxybenzene] + CN1CCCC1=O
Conditions | mass density, 298 K [kg/m3] | mass density, 303 K [kg/m3] | mass density, 308 K [kg/m3] | refractive index, 298 K | refractive index, 303 K | refractive index, 308 K | speed of sound, 298 K [m/s] | speed of sound, 303 K [m/s] | speed of sound, 308 K [m/s]
[1], x1 = 0.041 | 1023 ± 2 | 1019 ± 2 | 1015 ± 2 | – | – | – | 1534 ± 2 | 1515 ± 2 | 1497 ± 2
[1], x1 = 0.122 | 1018 ± 2 | 1014 ± 2 | 1010 ± 2 | – | – | – | 1513 ± 2 | 1495 ± 2 | 1477 ± 2
[1], x1 = 0.201 | 1013 ± 2 | 1009 ± 2 | 1005 ± 2 | – | – | – | 1495 ± 2 | 1477 ± 2 | 1460 ± 2
[1], x1 = 0.273 | 1008 ± 2 | 1004 ± 2 | 1000 ± 2 | – | – | – | 1480 ± 2 | 1462 ± 2 | 1445 ± 2
[1], x1 = 0.37 | 1001 ± 2 | 997 ± 2 | 993 ± 2 | – | – | – | 1460 ± 2 | 1443 ± 2 | 1427 ± 2
[1], x1 = 0.504 | 992 ± 2 | 988 ± 2 | 983 ± 2 | – | – | – | 1437 ± 2 | 1420 ± 2 | 1403 ± 2
[1], x1 = 0.628 | 983 ± 2 | 979 ± 2 | 975 ± 2 | – | – | – | 1418 ± 2 | 1400 ± 2 | 1383 ± 2
[1], x1 = 0.709 | 978 ± 2 | 974 ± 2 | 969 ± 2 | – | – | – | 1406 ± 2 | 1388 ± 2 | 1370 ± 2
[1], x1 = 0.822 | 971 ± 2 | 966 ± 2 | 962 ± 2 | – | – | – | 1391 ± 2 | 1372 ± 2 | 1354 ± 2
[1], x1 = 1 | 960 ± 2 | 955 ± 2 | 951 ± 2 | – | – | – | 1369 ± 2 | 1349 ± 2 | 1329 ± 2
[2], x1 = 0.041 | – | – | – | 1.469 ± 0.002 | 1.468 ± 0.002 | 1.466 ± 0.002 | – | – | –
[2], x1 = 0.122 | – | – | – | 1.474 ± 0.002 | 1.472 ± 0.002 | 1.469 ± 0.002 | – | – | –
[2], x1 = 0.201 | – | – | – | 1.478 ± 0.002 | 1.475 ± 0.002 | 1.473 ± 0.002 | – | – | –
[2], x1 = 0.273 | – | – | – | 1.481 ± 0.002 | 1.479 ± 0.002 | 1.476 ± 0.002 | – | – | –
[2], x1 = 0.37 | – | – | – | 1.485 ± 0.002 | 1.483 ± 0.002 | 1.48 ± 0.002 | – | – | –
[2], x1 = 0.504 | – | – | – | 1.491 ± 0.002 | 1.488 ± 0.002 | 1.485 ± 0.002 | – | – | –
[2], x1 = 0.628 | – | – | – | 1.495 ± 0.002 | 1.492 ± 0.002 | 1.489 ± 0.002 | – | – | –
[2], x1 = 0.709 | – | – | – | 1.498 ± 0.002 | 1.495 ± 0.002 | 1.491 ± 0.002 | – | – | –
[2], x1 = 0.822 | – | – | – | 1.501 ± 0.002 | 1.498 ± 0.002 | 1.495 ± 0.002 | – | – | –
[2], x1 = 1 | – | – | – | 1.505 ± 0.002 | 1.503 ± 0.002 | 1.499 ± 0.002 | – | – | –

CCOc1ccccc1 [ethoxybenzene] + CN(C)C=O
Conditions | mass density, 298 K [kg/m3] | mass density, 303 K [kg/m3] | mass density, 308 K [kg/m3] | refractive index, 298 K | refractive index, 303 K | refractive index, 308 K | speed of sound, 298 K [m/s] | speed of sound, 303 K [m/s] | speed of sound, 308 K [m/s]
[1], x1 = 0.031 | 946 ± 2 | 941 ± 2 | 936 ± 2 | – | – | – | 1452 ± 2 | 1432 ± 2 | 1415 ± 2
[1], x1 = 0.091 | 948 ± 2 | 943 ± 2 | 939 ± 2 | – | – | – | 1443 ± 2 | 1424 ± 2 | 1406 ± 2
[1], x1 = 0.153 | 950 ± 2 | 945 ± 2 | 941 ± 2 | – | – | – | 1435 ± 2 | 1415 ± 2 | 1398 ± 2
[1], x1 = 0.223 | 952 ± 2 | 947 ± 2 | 943 ± 2 | – | – | – | 1427 ± 2 | 1407 ± 2 | 1389 ± 2
[1], x1 = 0.304 | 954 ± 2 | 949 ± 2 | 945 ± 2 | – | – | – | 1418 ± 2 | 1398 ± 2 | 1380 ± 2
[1], x1 = 0.463 | 956 ± 2 | 952 ± 2 | 948 ± 2 | – | – | – | 1403 ± 2 | 1383 ± 2 | 1365 ± 2
[1], x1 = 0.556 | 957 ± 2 | 953 ± 2 | 949 ± 2 | – | – | – | 1396 ± 2 | 1376 ± 2 | 1357 ± 2
[1], x1 = 0.642 | 958 ± 2 | 954 ± 2 | 949 ± 2 | – | – | – | 1390 ± 2 | 1370 ± 2 | 1350 ± 2
[1], x1 = 0.8 | 959 ± 2 | 955 ± 2 | 950 ± 2 | – | – | – | 1379 ± 2 | 1360 ± 2 | 1340 ± 2
[1], x1 = 1 | 960 ± 2 | 955 ± 2 | 951 ± 2 | – | – | – | 1369 ± 2 | 1349 ± 2 | 1329 ± 2
[2], x1 = 0.031 | – | – | – | 1.431 ± 0.002 | 1.43 ± 0.002 | 1.427 ± 0.002 | – | – | –
[2], x1 = 0.091 | – | – | – | 1.437 ± 0.002 | 1.435 ± 0.002 | 1.432 ± 0.002 | – | – | –
[2], x1 = 0.153 | – | – | – | 1.442 ± 0.002 | 1.44 ± 0.002 | 1.437 ± 0.002 | – | – | –
[2], x1 = 0.223 | – | – | – | 1.448 ± 0.002 | 1.446 ± 0.002 | 1.442 ± 0.002 | – | – | –
[2], x1 = 0.304 | – | – | – | 1.455 ± 0.002 | 1.452 ± 0.002 | 1.449 ± 0.002 | – | – | –
[2], x1 = 0.463 | – | – | – | 1.468 ± 0.002 | 1.465 ± 0.002 | 1.461 ± 0.002 | – | – | –
[2], x1 = 0.556 | – | – | – | 1.475 ± 0.002 | 1.471 ± 0.002 | 1.468 ± 0.002 | – | – | –
[2], x1 = 0.642 | – | – | – | 1.481 ± 0.002 | 1.478 ± 0.002 | 1.474 ± 0.002 | – | – | –
[2], x1 = 0.8 | – | – | – | 1.493 ± 0.002 | 1.489 ± 0.002 | 1.485 ± 0.002 | – | – | –
[2], x1 = 1 | – | – | – | 1.505 ± 0.002 | 1.503 ± 0.002 | 1.499 ± 0.002 | – | – | –
